From patent publication US7456218B2, “3-(4-benzyloxyphenyl) propanoic acid derivatives” (Takeda Pharmaceutical Company Limited, priority 2003, dated 2008)

Experiments:
human GPR40 = biological target: T1, human GPR40 (Homo sapiens, UniProt O14842); assay: Determination of EC50 against human GPR40: changes in intracellular calcium concentration by FLIPR in CHO cells stably expressing human GPR40; assay type: cell-based; settings: CHO cell line stably expressing human GPR40, Fluo3-AM, read-out: EC50 (Receptor Function Modulating Action On GPR40)
T1 construct: expressed in transfected cells
Experimental: Determination of EC50 of the Compound of the Present Invention Against Human GPR40
For determination of EC50, CHO cell line that stably expressed human GPR40 was used. Unless otherwise indicated, the CHO cell line was cultured using α-MEM medium (Invitrogen) containing 10% fetal calf serum (Invitrogen).
The cells cultured to nearly confluent were rinsed with PBS (Invitrogen) on the previous day of the assay, peeled off with 0.05% Trypsin-EDTA solution (Invitrogen) and recovered by centrifugation. The number of the obtained cells was counted, and the cells were diluted such that 3×10^5 cells were contained per 1 mL of the medium, dispensed to a black welled 96-well plate (coster) by 100 μL per well and cultured overnight in a CO2 incubator. Various test compounds were added to the CHO cells thus prepared, and the changes in the intracellular calcium concentration was measured using FLIPR (Molecular Device). The below-mentioned pre-treatment was applied to measure changes in the intracellular calcium concentration by FLIPR.
An assay buffer for adding a fluorescence dye Fluo3-AM (DOJIN) to the cells, or for washing the cells immediately before FLIPR assay was prepared. To a solution of 1M HEPES (pH 7.4, DOJIN, 20 mL) added to HBSS (Invitrogen, 1000 mL) (hereinafter HBSS/HEPES solution) was added a solution (10 mL) obtained by dissolving probenecid (Sigma, 710 mg) in 1N NaOH (5 mL), and adding and mixing an HBSS/HEPES solution (5 mL), and the resulting solution was used as an assay buffer. Fluo3-AM (50 μg) was dissolved in dimethylsulfoxide (Wako, 21 μL), and an equivalent amount of 20% pluronic acid (Molecular Probes) was added and mixed. The solution was added to the assay buffer (10.6 mL) supplemented with fetal calf serum (105 μL) to give a fluorescence dye solution. […], the medium of the CHO cells newly inoculated to the black welled 96-well plate was removed, the fluorescence dye solution was immediately dispensed by 100 μL per well and the cells were cultured in a CO2 incubator for 1 hr to allow intake of the fluorescence dye by the cells. The cells after the culture were washed with the above-mentioned assay buffer and set on FLIPR. The test compound was diluted with dimethylsulfoxide in advance, dispensed to polypropylene 96-well plate (sample plate) by 2 μL, and cryopreserved at −20° C. To the thawed sample plate was added an assay buffer containing 0.015% CHAPS (DOJIN) by 198 μL, and simultaneously set on FLIPR together with the cell plate. After the aforementioned pre-treatment, changes in the intracellular calcium concentration upon addition of various test compounds was measured by FLIPR. Based on the results, a dose-response curve of each test compound was formed and EC50 was calculated.

T1 sequence (O14842 whole entry): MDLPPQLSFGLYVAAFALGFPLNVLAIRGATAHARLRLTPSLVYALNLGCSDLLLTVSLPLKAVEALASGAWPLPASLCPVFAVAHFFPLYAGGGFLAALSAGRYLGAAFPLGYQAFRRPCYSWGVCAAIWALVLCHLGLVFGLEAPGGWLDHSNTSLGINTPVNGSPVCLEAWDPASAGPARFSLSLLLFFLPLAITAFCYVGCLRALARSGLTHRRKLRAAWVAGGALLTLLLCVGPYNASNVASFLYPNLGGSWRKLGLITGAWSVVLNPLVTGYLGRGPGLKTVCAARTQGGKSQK

Row | SMILES | EC50 (human GPR40) | melting point
1 | Cc1cc(OCc2ccccc2)cc(C)c1-c1cccc(COc2ccc(CCC(=O)O)cc2)c1 [Example 39, 3-[4-[[4′-(benzyloxy)-2′,6′-dimethylbiphenyl-3-yl]methoxy]phenyl]propanoic acid] | 32 nM | –
2 | Cc1cc(OCCCN2CCCC2=O)cc(C)c1-c1cccc(COc2ccc(CCC(=O)O)c(F)c2)c1 [Example 90, 3-[4-({2′,6′-dimethyl-4′-[3-(2-oxopyrrolidin-1-yl)propoxy]biphenyl-3-yl}methoxy)-2-fluorophenyl]propanoic acid] | 34 nM | –
3 | Cc1cccc(COc2cc(C)c(-c3cccc(COc4ccc(CCC(=O)O)c(F)c4)c3)c(C)c2)n1.Cl [Example 97, 3-[4-({2′,6′-dimethyl-4′-[(6-methylpyridin-2-yl)methoxy]biphenyl-3-yl}methoxy)-2-fluorophenyl]propanoic acid hydrochloride] | 23 nM | 55 to 56 °C
4 | Cc1cc(C)c(-c2cccc(COc3ccc(CCC(=O)O)c(F)c3)c2)c(COc2ccc(F)cc2)c1 [Example 54, 3-{2-fluoro-4-[(2′-(4-fluorophenoxymethyl)-4′,6′-dimethylbiphenyl-3-yl)methoxy]phenyl}propanoic acid] | 49 nM | –
5 | Cc1cc(OC2CCS(=O)(=O)CC2)cc(C)c1-c1cccc(COc2ccc(CCC(=O)O)c(F)c2)c1 [Example 114, 3-[4-({4′-[(1,1-dioxidotetrahydro-2H-thiopyran-4-yl)oxy]-2′,6′-dimethylbiphenyl-3-yl}methoxy)-2-fluorophenyl]propanoic acid] | 20 nM | –
6 | CCS(=O)(=O)CCOc1cc(C)c(-c2cccc(COc3ccc(CCC(=O)O)c(F)c3)c2)c(C)c1 [Example 86, 3-[4-({4′-[2-(ethylsulfonyl)ethoxy]-2′,6′-dimethylbiphenyl-3-yl}methoxy)-2-fluorophenyl]propanoic acid] | 32 nM | –
7 | Cc1cc(OCC2(C)COC2)cc(C)c1-c1cccc(COc2ccc(CCC(=O)O)c(F)c2)c1 [Example 116, 3-[4-({2′,6′-dimethyl-4′-[(3-methyloxetan-3-yl)methoxy]biphenyl-3-yl}methoxy)-2-fluorophenyl]propanoic acid] | – | 112 to 113 °C
8 | Cc1cc(OCCc2scnc2C)ccc1-c1cccc(COc2ccc(CCC(=O)O)cc2)c1 [Example 14, 3-[4-({2′-methyl-4′-[2-(4-methyl-1,3-thiazol-5-yl)ethoxy]biphenyl-3-yl}methoxy)phenyl]propanoic acid] | 10 nM | –
9 | Cc1cc(OCC2(O)CCS(=O)(=O)CC2)cc(C)c1-c1cccc(COc2ccc(CCC(=O)O)c(F)c2)c1 [Example 100, 3-[2-fluoro-4-({4′-[(4-hydroxy-1,1-dioxidotetrahydro-2H-thiopyran-4-yl)methoxy]-2′,6′-dimethylbiphenyl-3-yl}methoxy)phenyl]propanoic acid] | 17 nM | –
10 | Cc1cc(Cl)ccc1-c1cccc(COc2ccc(CCC(=O)O)cc2)c1 [Example 33, 3-[4-[(4′-chloro-2′-methylbiphenyl-3-yl)methoxy]phenyl]propanoic acid] | 6.1 nM | –
11 | Cc1cc(OS(C)(=O)=O)cc(C)c1-c1cccc(COc2ccc(CCC(=O)O)c(F)c2)c1 [Example 102, 3-[4-({2′,6′-dimethyl-4′-[(methylsulfonyl)oxy]biphenyl-3-yl}methoxy)-2-fluorophenyl]propanoic acid] | 15 nM | 124 to 125 °C
12 | CCOCCOc1cc(C)c(-c2cccc(COc3ccc(CC(F)(F)C(=O)O)cc3)c2)c(C)c1 [Example 75, 3-(4-{[4′-(2-ethoxyethoxy)-2′,6′-dimethylbiphenyl-3-yl]methoxy}phenyl)-2,2-difluoropropanoic acid] | 16 nM | –
13 | COc1ccc(COc2ccc(CCC(=O)O)cc2)cc1-c1ccc(C)cc1C [Example 49, 3-(4-((6-methoxy-2′,4′-dimethylbiphenyl-3-yl)methoxy)phenyl)propanoic acid] | 11 nM | –
